Tests used:
Test in all cases: relative viability (nuclei count vs DMSO), 5 days (fraction); higher = more cells survive
Erlotinib + Palbociclib = compound: C#Cc1cccc(Nc2ncnc3cc(OCCOC)c(OCCOC)cc23)c1 [Erlotinib] + CC(=O)c1c(C)c2cnc(Nc3ccc(N4CCNCC4)cn3)nc2n(C2CCCC2)c1=O [Palbociclib] (partner 0.5 µM)
Outline: (§1)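 Five library-drug doses in √10 steps were combined with a fixed anchor-drug dose, or a single drug was given alone, by pin tool to lung cancer cell lines in 1536-well plates the day after seeding. Nuclei were stained and counted after 5 days. Relative viability is the nuclei count in treated wells over that in vehicle wells, taken as the median of duplicate plates.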

Erlotinib + Pictilisib = compound: C#Cc1cccc(Nc2ncnc3cc(OCCOC)c(OCCOC)cc23)c1 [Erlotinib] + CS(=O)(=O)N1CCN(Cc2cc3nc(-c4cccc5[nH]ncc45)nc(N4CCOCC4)c3s2)CC1 [Pictilisib] (partner 1 µM)
Outline: as §1

Erlotinib + Tozasertib = compound: C#Cc1cccc(Nc2ncnc3cc(OCCOC)c(OCCOC)cc23)c1 [Erlotinib] + Cc1cc(Nc2cc(N3CCN(C)CC3)nc(Sc3ccc(NC(=O)C4CC4)cc3)n2)n[nH]1 [Tozasertib] (partner 0.1 µM)
Outline: as §1

AT9283 + Decitabine = compound: O=C(Nc1c[nH]nc1-c1nc2ccc(CN3CCOCC3)cc2[nH]1)NC1CC1 [AT9283] + Nc1ncn([C@H]2C[C@H](O)[C@@H](CO)O2)c(=O)n1 [Decitabine] (partner 2 µM)
Outline: as §1

AT9283 + Olaparib = compound: O=C(Nc1c[nH]nc1-c1nc2ccc(CN3CCOCC3)cc2[nH]1)NC1CC1 [AT9283] + O=C(c1cc(Cc2n[nH]c(=O)c3ccccc23)ccc1F)N1CCN(C(=O)C2CC2)CC1 [Olaparib] (partner 8 µM)
Outline: as §1

Cell Line	relative viability (Erlotinib + Palbociclib; first compound 0.02 µM)	relative viability (Erlotinib + Palbociclib; first compound 0.2 µM)	relative viability (Erlotinib + Palbociclib; first compound 0.6325 µM)	relative viability (Erlotinib + Palbociclib; first compound 2 µM)	relative viability (Erlotinib + Pictilisib; first compound 0.02 µM)	relative viability (Erlotinib + Pictilisib; first compound 0.2 µM)	relative viability (Erlotinib + Pictilisib; first compound 0.6325 µM)	relative viability (Erlotinib + Pictilisib; first compound 2 µM)	relative viability (Erlotinib + Tozasertib; first compound 0.02 µM)	relative viability (Erlotinib + Tozasertib; first compound 0.2 µM)	relative viability (Erlotinib + Tozasertib; first compound 0.6325 µM)	relative viability (Erlotinib + Tozasertib; first compound 2 µM)	relative viability (AT9283 + Decitabine; first compound 0.003 µM)	relative viability (AT9283 + Decitabine; first compound 0.03 µM)	relative viability (AT9283 + Decitabine; first compound 0.09487 µM)	relative viability (AT9283 + Decitabine; first compound 0.3 µM)	relative viability (AT9283 + Olaparib; first compound 0.003 µM)	relative viability (AT9283 + Olaparib; first compound 0.03 µM)	relative viability (AT9283 + Olaparib; first compound 0.09487 µM)	relative viability (AT9283 + Olaparib; first compound 0.3 µM)
LOU-NH91	0.564	0.546	0.624	0.542	0.471	0.505	0.465	0.475	0.564	0.472	0.491	0.424	0.83	0.77	0.522	0.509	0.915	0.774	0.512	0.441
LU99A	0.466	0.421	0.38	0.327	0.302	0.31	0.347	0.281	0.305	0.271	0.263	0.221	0.868	0.404	0.195	0.226	0.258	0.214	0.14	0.123
LXF-289	0.583	0.566	0.531	0.539	0.775	–	0.798	0.704	0.195	0.218	0.208	0.117	0.354	0.423	0.214	0.139	1.13	0.98	0.0877	0.0796
NCI-H23	0.571	0.447	0.453	0.509	0.56	0.517	0.61	0.464	0.387	0.344	0.299	0.26	0.26	0.293	0.228	0.246	0.334	0.297	0.3	0.211
NCI-H322M	0.401	0.431	0.378	0.426	0.456	0.499	0.347	0.365	0.42	0.374	0.331	0.314	0.775	0.531	0.588	0.462	0.834	0.58	0.518	0.453
NCI-H358	0.132	0.146	0.109	0.108	0.319	0.313	0.303	0.28	0.0843	0.111	0.0963	0.0822	0.219	0.143	0.102	0.0856	0.513	0.202	0.091	0.105
NCI-H460	0.257	0.14	0.198	0.183	0.351	0.335	0.412	0.353	0.44	0.191	0.109	0.0585	0.434	0.466	0.24	0.078	0.479	0.307	0.127	0.113
NCI-H520	0.202	0.223	0.272	0.311	0.262	0.279	0.335	0.298	0.427	0.471	0.466	0.432	0.381	0.297	0.272	0.171	0.32	0.205	0.223	0.22

Reference: the supplement of paper PMC10307832
